Test results as given in US11667606B2, “Thyromimetics” (Autobahn Therapeutics, Inc., priority 2019, dated 2023).

Columns and labels:
[1] = target: T1, TRβ (Homo sapiens, UniProt P10828); experiment: Thyroid-hormone reporter-gene assay, TRβ (Gal4 DBD hybrid, luciferase, HEK293); assay type: cell-based; details: for T3-SI, selectivity index (SI) calculated as EC50 (TRα)/EC50 (TRβ): TRβ over TRα selectivity from reporter-gene EC50 values; for EC50: reporter cells derived from HEK293, 24 hr incubation, luciferase readout
T1 construct: expressed in transfected cells; host or cells: HEK293
T1 sequence (P10828 217-461 limits assumed): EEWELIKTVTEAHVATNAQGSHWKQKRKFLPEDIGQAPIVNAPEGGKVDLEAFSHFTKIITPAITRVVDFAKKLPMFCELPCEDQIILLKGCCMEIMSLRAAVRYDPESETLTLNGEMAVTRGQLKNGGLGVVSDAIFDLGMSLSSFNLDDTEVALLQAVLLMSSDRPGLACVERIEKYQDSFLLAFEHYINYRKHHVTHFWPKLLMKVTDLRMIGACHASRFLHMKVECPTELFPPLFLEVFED
Method: (§1) Compounds were tested for thyroid-hormone receptor activity using TR reporter-gene assays. Reporter cells used in the assays express a TR-receptor hybrid (either TRα or TRβ) in which the native N-terminal DNA binding domain (DBD) has been replaced with that of the yeast Gal4 DBD. The reporter gene, firefly luciferase, is functionally linked to the Gal4 upstream activation sequence (UAS). Both cell lines were derived from human embryonic kidney (HEK293).
(§2) A suspension of reporter cells was prepared in cell recovery medium containing 10% charcoal-stripped FBS, and dispensed into assay plates. The plates were pre-incubated for 6 hours in a cell culture incubator (37° C./5% CO2/85% humidity).
(§3) These intermediate stocks were subsequently diluted directly into compound screening medium containing 10% charcoal-stripped FBS to generate “2×-concentration” treatment media (containing 0.2, 0.4 or 0.8% DMSO).
(§4) At the end of the pre-incubation period, culture media were discarded from the assay plates, and all wells received 100 μl of compound screening medium. 100 μl of each of the previously prepared “2×-concentration” treatment media were dispensed into duplicate assay wells, thereby achieving the desired final treatment concentrations. The final concentration of DMSO in all assay wells was 0.1, 0.2 or 0.4%. Assay plates were incubated for 24 hr in a cell culture incubator (37° C./5% CO2/85% humidity).
(§5) At the 24 h assay endpoint, treatment media were discarded and […] of luciferase detection reagent was added. Relative luminometer units (RLUs) were quantified from each assay well.

[2] = target: T2, TRα (Homo sapiens, UniProt P10827); experiment: Thyroid-hormone reporter-gene assay, TRα (Gal4 DBD hybrid, luciferase, HEK293); assay type: cell-based; details: reporter cells derived from HEK293, 24 hr incubation, luciferase readout
T2 construct: expressed in transfected cells; host or cells: HEK293
T2 sequence (P10827 128-410 isoform P10827-2 limits assumed): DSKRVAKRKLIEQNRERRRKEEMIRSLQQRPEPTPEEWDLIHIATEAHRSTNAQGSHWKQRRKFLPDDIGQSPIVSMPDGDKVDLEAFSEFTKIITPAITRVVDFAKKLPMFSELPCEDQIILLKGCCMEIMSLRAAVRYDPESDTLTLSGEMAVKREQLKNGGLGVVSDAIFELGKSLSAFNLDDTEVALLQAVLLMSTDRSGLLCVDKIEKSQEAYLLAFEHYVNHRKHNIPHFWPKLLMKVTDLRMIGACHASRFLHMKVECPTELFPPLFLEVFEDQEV
Method: as §1, §2, §3, §4, §5

| Structure (SMILES) | T3-SI, selectivity index (SI) calculated as EC50 (TRα)/EC50 (TRβ) [1] | EC50 [1] | EC50 [2] |
| --- | --- | --- | --- |
| C[C@@H](c1ccc(F)cc1)c1cc(Cc2c(Cl)cc(OCC(=O)O)cc2Cl)ccc1O (single isomer, unassigned) [Compound 74] | ++ (3X < T3-SI ≤ 30X) | 100 to 1000 nM | > 1000 nM |
| C[C@H](c1ccc(F)cc1)c1cc(Cc2c(Cl)cc(OCC(=O)O)cc2Cl)ccc1O (single isomer, unassigned) [Compound 75] | ++ (3X < T3-SI ≤ 30X) | < 10 nM | 10 to 100 nM |
| O=C(O)COc1cc(Cl)c(Cc2ccc(O)c(-c3cccc(C(F)(F)F)c3)c2)c(Cl)c1 [Compound 1, 2-(3,5-dichloro-4-((6-hydroxy-3′-(trifluoromethyl)-[1,1′-biphenyl]-3-yl)methyl)phenoxy)acetic Acid] | ++ (3X < T3-SI ≤ 30X) | 100 to 1000 nM | 100 to 1000 nM |
| CCc1cccc(-c2cc(Cc3c(Cl)cc(OCC(=O)O)cc3Cl)ccc2O)c1 [Compound 3, 2-(3,5-dichloro-4-((3′-ethyl-6-hydroxy-[1,1′-biphenyl]-3-yl)methyl)phenoxy)acetic Acid] | +++ (T3-SI > 30X) | 100 to 1000 nM | > 1000 nM |
| O=C(O)COc1cc(Cl)c(Cc2ccc(O)c(-c3cccc(OC(F)F)c3)c2)c(Cl)c1 [Compound 5, 2-(3,5-dichloro-4-((3′-(difluoromethoxy)-6-hydroxy-[1,1′-biphenyl]-3-yl)methyl)phenoxy)acetic Acid] | +++ (T3-SI > 30X) | 100 to 1000 nM | > 1000 nM |
| COc1cccc(-c2cc(Cc3c(Cl)cc(OCC(=O)O)cc3Cl)ccc2O)c1 [Compound 7, 2-(3,5-dichloro-4-((6-hydroxy-3′-methoxy-[1,1′-biphenyl]-3-yl)methyl)phenoxy)acetic Acid] | ++ (3X < T3-SI ≤ 30X) | > 1000 nM | > 1000 nM |
| CC(=O)c1cccc(-c2cc(Cc3c(Cl)cc(OCC(=O)O)cc3Cl)ccc2O)c1 [Compound 11, 2-(4-((3′-acetyl-6-hydroxy-[1,1′-biphenyl]-3-yl)methyl)-3,5-dichlorophenoxy)acetic Acid] | – | > 1000 nM | > 1000 nM |
| O=C(O)COc1cc(Cl)c(Cc2ccc(O)c(-c3cccc(OC(F)(F)F)c3)c2)c(Cl)c1 [Compound 12, 2-(3,5-dichloro-4-((6-hydroxy-3′-(trifluoromethoxy)-[1,1′-biphenyl]-3-yl)methyl)phenoxy)acetic Acid] | +++ (T3-SI > 30X) | 100 to 1000 nM | > 1000 nM |
| CC(C)c1cccc(-c2cc(Cc3c(Cl)cc(OCC(=O)O)cc3Cl)ccc2O)c1 [Compound 13, 2-(3,5-dichloro-4-((6-hydroxy-3′-isopropyl-[1,1′-biphenyl]-3-yl)methyl)phenoxy)acetic Acid] | +++ (T3-SI > 30X) | 100 to 1000 nM | > 1000 nM |
| CCCc1cccc(-c2cc(Cc3c(Cl)cc(OCC(=O)O)cc3Cl)ccc2O)c1 [Compound 16, 2-(3,5-dichloro-4-((6-hydroxy-3′-propyl-[1,1′-biphenyl]-3-yl)methyl)phenoxy)acetic Acid] | +++ (T3-SI > 30X) | 100 to 1000 nM | > 1000 nM |
| Cc1cccc(-c2cc(Cc3c(Cl)cc(OCC(=O)O)cc3Cl)ccc2O)c1 [Compound 17, 2-(3,5-dichloro-4-((6-hydroxy-3′-methyl-[1,1′-biphenyl]-3-yl)methyl)phenoxy)acetic Acid] | ++ (3X < T3-SI ≤ 30X) | 100 to 1000 nM | > 1000 nM |
| N#Cc1cccc(-c2cc(Cc3c(Cl)cc(OCC(=O)O)cc3Cl)ccc2O)c1 [Compound 19, 2-(3,5-dichloro-4-((3′-cyano-6-hydroxy-[1,1′-biphenyl]-3-yl)methyl)phenoxy)acetic Acid] | ++ (3X < T3-SI ≤ 30X) | 10 to 100 nM | 100 to 1000 nM |
| C=Cc1cccc(-c2cc(Cc3c(Cl)cc(OCC(=O)O)cc3Cl)ccc2O)c1 [Compound 21, 2-(3,5-dichloro-4-((6-hydroxy-3′-vinyl-[1,1′-biphenyl]-3-yl)methyl)phenoxy)acetic Acid] | ++ (3X < T3-SI ≤ 30X) | 100 to 1000 nM | > 1000 nM |
| C=C(C)c1cccc(-c2cc(Cc3c(Cl)cc(OCC(=O)O)cc3Cl)ccc2O)c1 [Compound 22, 2-(3,5-dichloro-4-((6-hydroxy-3′-(prop-1-en-2-yl)-[1,1′-biphenyl]-3-yl)methyl)phenoxy)acetic Acid] | – | > 1000 nM | > 1000 nM |
| O=C(O)COc1cc(Cl)c(Cc2ccc(O)c(-c3cccc(CC(F)(F)F)c3)c2)c(Cl)c1 [Compound 26, 2-(3,5-dichloro-4-((6-hydroxy-3′-(2,2,2-trifluoroethyl)-[1,1′-biphenyl]-3-yl)methyl)phenoxy)acetic Acid] | +++ (T3-SI > 30X) | 100 to 1000 nM | > 1000 nM |
| O=C(O)COc1cc(Cl)c(Cc2ccc(O)c(-c3cccc(Cl)c3)c2)c(Cl)c1 [Compound 29, 2-(3,5-dichloro-4-((3′-chloro-6-hydroxy-[1,1′-biphenyl]-3-yl)methyl)phenoxy)acetic Acid] | ++ (3X < T3-SI ≤ 30X) | 10 to 100 nM | 100 to 1000 nM |
| O=C(O)COc1cc(Cl)c(Cc2ccc(O)c(-c3cccs3)c2)c(Cl)c1 [Compound 34, 2-(3,5-dichloro-4-(4-hydroxy-3-(thiophen-2-yl)benzyl)phenoxy)acetic acid] | ++ (3X < T3-SI ≤ 30X) | 100 to 1000 nM | > 1000 nM |
| O=C(O)COc1cc(Cl)c(Cc2ccc(O)c(-c3cc(Cl)cs3)c2)c(Cl)c1 [Compound 36, 2-(3,5-dichloro-4-(3-(4-chlorothiophen-2-yl)-4-hydroxybenzyl)phenoxy) acetic Acid] | ++ (3X < T3-SI ≤ 30X) | > 1000 nM | > 1000 nM |
| O=C(O)COc1cc(Cl)c(Cc2ccc(O)c(-c3ccco3)c2)c(Cl)c1 [Compound 38, 2-(3,5-dichloro-4-(3-(furan-2-yl)-4-hydroxybenzyl)phenoxy)acetic acid] | ++ (3X < T3-SI ≤ 30X) | > 1000 nM | > 1000 nM |
| O=C(O)COc1cc(Cl)c(Cc2ccc(O)c(-c3ccoc3)c2)c(Cl)c1 [Compound 40, 2-(3,5-dichloro-4-(3-(furan-3-yl)-4-hydroxybenzyl)phenoxy)acetic acid] | ++ (3X < T3-SI ≤ 30X) | > 1000 nM | > 1000 nM |
| O=C(O)COc1cc(Cl)c(Cc2ccc(O)c(-c3ccsc3)c2)c(Cl)c1 [Compound 42, 2-(3,5-dichloro-4-(4-hydroxy-3-(thiophen-3-yl)benzyl)phenoxy)acetic acid] | ++ (3X < T3-SI ≤ 30X) | 100 to 1000 nM | > 1000 nM |
| O=C(O)COc1cc(Cl)c(Cc2ccc(O)c(-c3csc(Cl)c3)c2)c(Cl)c1 [Compound 43, 2-(3,5-dichloro-4-(3-(5-chlorothiophen-3-yl)-4-hydroxybenzyl)phenoxy) acetic Acid] | ++ (3X < T3-SI ≤ 30X) | 100 to 1000 nM | > 1000 nM |
